Tested on: human MSCs carrying pLenti6 TK RANTES (HSV tk under RANTES promoter)
Assay: Specific cell death of induced genetically modified MSCs after ganciclovir treatment
Assay type: cell-based
Details: 9 days TNFα (10 ng/ml) and IFNγ (10 ng/ml), then 3 days 100 μM ganciclovir
Protocol: Human MSCs were incubated over night with replication deficient lentiviruses carrying the vector pLenti6 TK RANTES harboring the HSV tk gene under the control of the RANTES promoter and the blasticidin resistance gene under the control of the SV40 promoter (multiplicity of infection (MOI): 10) (see FIG. 8).
After overnight incubation the virus containing media was removed and replaced with fresh media. The next day blasticidin (6 μg/ml) was added to the cells to select for genetically modified MSCs. Culture media, including blasticidin was changed every 3 to 4 days for a minimum of 6 days.
Genetically modified cells (50000 cells in per 6 well) that were generated as described above were treated for 9 days with TNFα (10 ng/ml) and IFNγ (10 ng/ml) with addition of fresh cytokines every 3 days. Subsequently the cells were incubated for 3 days with 100 μM ganciclovir.

Structure (SMILES): Nc1nc(O)c2ncn(COC(CO)CO)c2n1 [ganciclovir]
- survival of genetically modified MSCs: not surviving
